Assay results as given in patent US20260285850A1, “SUBSTITUTED OXAZOLIDINONES AND IMIDAZOLINONES AS HERBICIDES” (FMC CORPORATION, priority 2023, published 2026).

Legend:
Format in all cases: in vivo
[1] = test system: barnyardgrass (Echinochloa crus-galli); assay: Test A preemergence soil spray, visual injury rating 0-100; settings: 10 days, 0 = no effect, 100 = complete control
Description: (§1) Seeds of plant species selected from barnyardgrass (Echinochloa crus-galli), blackgrass (Alopecurus myosuroides), corn (Zea mays), foxtail, giant (giant foxtail, Setaria faberi), green foxtail (Setaria viridis), goosegrass (Eleusine indica), kochia (Bassia scoparia), oat, wild (wild oat, Avena fatua), palmer (palmer amaranth, palmer pigweed, Amaranthus palmeri), ragweed (common ragweed, Ambrosia artemisiifolia), ryegrass, Italian (italian ryegrass, Lolium multiflorum), soybean (Glycine max) and wheat (Triticum aestivum) were planted into a blend of loam soil and sand and treated preemergence with a directed soil spray using test chemicals formulated in a non-phytotoxic solvent mixture which included a surfactant.
(§2) At the same time, plants selected from these crops and weed species and also galium (catchweed bedstraw, Galium aparine) and horseweed (Erigeron canadensis) were planted in pots containing the same blend of loam soil and sand and treated with postemergence applications of test chemicals formulated in the same manner. Plants ranged in height from 2 to 10 cm and were in the one- to two-leaf stage for the postemergence treatment. Treated plants and untreated controls were maintained in a greenhouse for 10 days, after which time all treated plants were compared to untreated controls and visually evaluated for injury. Plant response ratings, summarized in Table A, are based on a 0 to 100 scale where 0 is no effect and 100 is complete control. A dash (-) response means no test result.

[2] = test system: blackgrass (Alopecurus myosuroides); assay: as above; settings: 10 days, 0 = no effect, 100 = complete control
Description: as §1, §2

corn (Zea mays) [3] = assay: as above; settings: 10 days, 0 = no effect, 100 = complete control
Description: as §1, §2

[4] = test system: green foxtail (Setaria viridis); assay: as above; settings: 10 days, 0 = no effect, 100 = complete control
Description: as §1, §2

kochia (Bassia scoparia) [5] = assay: as above; settings: 10 days, 0 = no effect, 100 = complete control
Description: as §1, §2

[6] = test system: oat, wild (wild oat, Avena fatua); assay: as above; settings: 10 days, 0 = no effect, 100 = complete control
Description: as §1, §2

[7] = test system: palmer (palmer amaranth, palmer pigweed, Amaranthus palmeri); assay: as above; settings: 10 days, 0 = no effect, 100 = complete control
Description: as §1, §2

[8] = test system: ragweed (common ragweed, Ambrosia artemisiifolia); assay: as above; settings: 10 days, 0 = no effect, 100 = complete control
Description: as §1, §2

[9] = test system: ryegrass, Italian (italian ryegrass, Lolium multiflorum); assay: as above; settings: 10 days, 0 = no effect, 100 = complete control
Description: as §1, §2

soybean (Glycine max) [10] = assay: as above; settings: 10 days, 0 = no effect, 100 = complete control
Description: as §1, §2

[11] = test system: wheat (Triticum aestivum); assay: as above; settings: 10 days, 0 = no effect, 100 = complete control
Description: as §1, §2

[12] = test system: barnyardgrass (Echinochloa crus-galli); assay: Test A postemergence application, visual injury rating 0-100; settings: 10 days
Description: as §1, §2

[13] = test system: blackgrass (Alopecurus myosuroides); assay: as above; settings: 10 days
Description: as §1, §2

corn (Zea mays) [14] = assay: as above; settings: 10 days
Description: as §1, §2

[15] = test system: green foxtail (Setaria viridis); assay: as above; settings: 10 days
Description: as §1, §2

[16] = test system: horseweed (Erigeron canadensis); assay: as above; settings: 10 days
Description: as §1, §2

kochia (Bassia scoparia) [17] = assay: as above; settings: 10 days
Description: as §1, §2

[18] = test system: oat, wild (wild oat, Avena fatua); assay: as above; settings: 10 days
Description: as §1, §2

[19] = test system: palmer (palmer amaranth, palmer pigweed, Amaranthus palmeri); assay: as above; settings: 10 days
Description: as §1, §2

[20] = test system: ragweed (common ragweed, Ambrosia artemisiifolia); assay: as above; settings: 10 days
Description: as §1, §2

[21] = test system: ryegrass, Italian (italian ryegrass, Lolium multiflorum); assay: as above; settings: 10 days
Description: as §1, §2

soybean (Glycine max) [22] = assay: as above; settings: 10 days
Description: as §1, §2

[23] = test system: wheat (Triticum aestivum); assay: as above; settings: 10 days
Description: as §1, §2

[24] = test system: barnyardgrass (Echinochloa crusgalli); assay: Test B flooded paddy test, visual plant response rating 0-100; settings: 250 g ai/ha, Flood, applied to paddy water, evaluated after 13 days
Protocol: (§3) Plant species in the flooded paddy test selected from barnyardgrass (Echinochloa crusgalli), ducksalad (Heteranthera limosa), rice (Oryza sativa), and sedge, umbrella (small-flower umbrella sedge, Cyperus difformis) were grown to the 2-leaf stage for testing. At time of treatment, test pots were flooded to 3 cm above the soil surface, treated by application of test compounds directly to the paddy water, and then maintained at that water depth for the duration of the test. Treated plants and controls were maintained in a greenhouse for 13 days, after which time all species were compared to controls and visually evaluated. […] A dash (-) response means no test result.

[25] = test system: ducksalad (Heteranthera limosa); assay: as above; settings: 250 g ai/ha, Flood, applied to paddy water, evaluated after 13 days
Protocol: as §3

rice (Oryza sativa) = assay: as above; settings: 250 g ai/ha, Flood, applied to paddy water, evaluated after 13 days
Protocol: as §3

[26] = test system: sedge, umbrella (small-flower umbrella sedge, Cyperus difformis); assay: as above; settings: 250 g ai/ha, Flood, applied to paddy water, evaluated after 13 days
Protocol: as §3

[27] = 31 g ai/ha, postemergence, 0 = no effect, 100 = complete control
[28] = Postemergence, 125 g ai/ha, 0 is no effect, 100 is complete control

CC1(C(=O)NC2CCC(C(=O)O)C2)CN(c2cc(F)cc(F)c2)C(=O)O1 (centres unmarked) [Compound 9]
Barnyardgrass plant response rating (0-100) ([1]; 31 g ai/ha): 0 | Barnyardgrass plant response rating (0 to 100 scale) ([1]; 125 g ai/ha): 50 | Blackgrass plant response rating (0-100) ([2]; 31 g ai/ha): 0 | Blackgrass plant response rating (0 to 100 scale) ([2]; 125 g ai/ha): 80 | Corn plant response rating (0-100) (corn (Zea mays) [3]; 31 g ai/ha): 10 | Corn plant response rating (0 to 100 scale) (corn (Zea mays) [3]; 125 g ai/ha): 80 | Foxtail, Green plant response rating (0-100) ([4]; 31 g ai/ha): 0 | Foxtail, Green plant response rating (0 to 100 scale) ([4]; 125 g ai/ha): 90 | Kochia plant response rating (0-100) (kochia (Bassia scoparia) [5]; 31 g ai/ha): 0 | Kochia plant response rating (0 to 100 scale) (kochia (Bassia scoparia) [5]; 125 g ai/ha): 30 | Oat, Wild plant response rating (0-100) ([6]; 31 g ai/ha): 0 | Oat, Wild plant response rating (0 to 100 scale) ([6]; 125 g ai/ha): 90 | Amaranth, Palmer plant response rating (0-100) ([7]; 31 g ai/ha): 0 | Amaranth, Palmer plant response rating (0 to 100 scale) ([7]; 125 g ai/ha): 10 | Ragweed plant response rating (0-100) ([8]; 31 g ai/ha): 0 | Ragweed plant response rating (0 to 100 scale) ([8]; 125 g ai/ha): 0 | Ryegrass, Italian plant response rating (0-100) ([9]; 31 g ai/ha): 0 | Ryegrass, Italian plant response rating (0 to 100 scale) ([9]; 125 g ai/ha): 90 | Soybean plant response rating (0-100) (soybean (Glycine max) [10]; 31 g ai/ha): 0 | Soybean plant response rating (0 to 100 scale) (soybean (Glycine max) [10]; 125 g ai/ha): 80 | Wheat plant response rating (0-100) ([11]; 31 g ai/ha): 80 | Wheat plant response rating (0 to 100 scale) ([11]; 125 g ai/ha): 90 | Barnyardgrass plant response rating (0-100) [12, 27]: 70 | Barnyardgrass plant response rating (0 to 100 scale) [12, 28]: 100 | Blackgrass plant response rating (0-100) [13, 27]: 60 | Blackgrass plant response rating (0 to 100 scale) [13, 28]: 70 | Corn plant response rating (0-100) (corn (Zea mays) [14]; [27]): 20 | Corn plant response rating (0 to 100 scale) (corn (Zea mays) [14]; [28]): 100 | Foxtail, Green plant response rating (0-100) [15, 27]: 30 | Foxtail, Green plant response rating (0 to 100 scale) [15, 28]: 90 | Horseweed plant response rating (0-100) [16, 27]: 0 | Horseweed plant response rating (0 to 100 scale) [16, 28]: 10 | Kochia plant response rating (0-100) (kochia (Bassia scoparia) [17]; [27]): 50 | Kochia plant response rating (0 to 100 scale) (kochia (Bassia scoparia) [17]; [28]): 80 | Oat, Wild plant response rating (0-100) [18, 27]: 90 | Oat, Wild plant response rating (0 to 100 scale) [18, 28]: 90 | Amaranth, Palmer plant response rating (0-100) [19, 27]: 10 | Amaranth, Palmer / Pigweed, Palmer plant response rating (0 to 100 scale) [19, 28]: 90 | Ragweed plant response rating (0-100) [20, 27]: 0 | Ragweed plant response rating (0 to 100 scale) [20, 28]: 0 | Ryegrass, Italian plant response rating (0-100) [21, 27]: 50 | Ryegrass, Italian plant response rating (0 to 100 scale) [21, 28]: 80 | Soybean plant response rating (0-100) (soybean (Glycine max) [22]; [27]): 60 | Soybean plant response rating (0 to 100 scale) (soybean (Glycine max) [22]; [28]): 70 | Wheat plant response rating (0-100) [23, 27]: 90 | Wheat plant response rating (0 to 100 scale) [23, 28]: 90 | Plant response rating, Barnyardgrass (0 to 100 scale, 0 is no effect and 100 is complete control) [24]: 0 | Plant response rating, Ducksalad (0 to 100 scale, 0 is no effect and 100 is complete control) [25]: 0 | Plant response rating, Rice (0 to 100 scale, 0 is no effect and 100 is complete control) (rice (Oryza sativa)): 0 | Plant response rating, Sedge, Umbrella (0 to 100 scale, 0 is no effect and 100 is complete control) [26]: 0
